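Interpolation was linear, between the two tested concentrations surrounding the appropriate level; five concentrations were tested over 48 hours in 96-well plates. Abbreviation: GI50, concentration required for 50% inhibition of growth. At the TGI there is no net growth.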
Legend:
Test in all cases: NCI anticancer screen, dose series, 48 h
IGROV1 ovarian = test system: IGROV1 ovarian
RXF 393 renal = test system: RXF 393 renal
KM12 colon = test system: KM12 colon
SNB-75 CNS = test system: SNB-75 CNS
MOLT-4 leukemia = test system: MOLT-4 leukemia
HOP-92 NSCLC = test system: HOP-92 NSCLC
UACC-257 melanoma = test system: UACC-257 melanoma
NCI-H226 lung = test system: NCI-H226 lung
OVCAR-3 ovarian = test system: OVCAR-3 ovarian
SNB-19 CNS = test system: SNB-19 CNS
UO-31 renal = test system: UO-31 renal
COLO 205 colon = test system: COLO 205 colon
MALME-3M melanoma = test system: MALME-3M melanoma
SK-MEL-5 melanoma = test system: SK-MEL-5 melanoma
UACC-62 melanoma = test system: UACC-62 melanoma
HOP-62 NSCLC = test system: HOP-62 NSCLC
TK-10 renal = test system: TK-10 renal
SW-620 colon = test system: SW-620 colon
SK-MEL-2 melanoma = test system: SK-MEL-2 melanoma
A549 NSCLC = test system: A549 NSCLC
NCI-H23 lung = test system: NCI-H23 lung
OVCAR-4 ovarian = test system: OVCAR-4 ovarian
SK-MEL-28 melanoma = test system: SK-MEL-28 melanoma
SF-268 CNS = test system: SF-268 CNS
SK-OV-3 ovarian = test system: SK-OV-3 ovarian
RPMI-8226 leukemia = test system: RPMI-8226 leukemia
MDA-MB-231 breast = test system: MDA-MB-231 breast
U251 CNS = test system: U251 CNS
OVCAR-5 ovarian = test system: OVCAR-5 ovarian
MCF7 breast = test system: MCF7 breast
HT29 colon = test system: HT29 colon
MDA-MB-435 = test system: MDA-MB-435
CAKI-1 renal = test system: CAKI-1 renal
786-0 renal = test system: 786-0 renal
PC-3 prostate = test system: PC-3 prostate
DU-145 prostate = test system: DU-145 prostate
BT-549 breast = test system: BT-549 breast
HCT-15 colon = test system: HCT-15 colon
M14 melanoma = test system: M14 melanoma
K-562 leukemia = test system: K-562 leukemia
SF-539 CNS = test system: SF-539 CNS
NCI-H460 lung = test system: NCI-H460 lung
NCI/ADR-RES ovarian = test system: NCI/ADR-RES ovarian
HCT-116 colon = test system: HCT-116 colon
NCI-H522 lung = test system: NCI-H522 lung
HCC-2998 colon = test system: HCC-2998 colon
ACHN renal = test system: ACHN renal
CCRF-CEM leukemia = test system: CCRF-CEM leukemia
OVCAR-8 ovarian = test system: OVCAR-8 ovarian
HS 578T breast = test system: HS 578T breast
A498 renal = test system: A498 renal
T-47D breast = test system: T-47D breast
SF-295 CNS = test system: SF-295 CNS
LOX IMVI melanoma = test system: LOX IMVI melanoma
SN12C renal = test system: SN12C renal

## O=C(/C=C/c1ccc(B(O)O)cc1)/C=C/c1ccc(B(O)O)cc1
IGROV1 ovarian
  GI50: 3.46 µM
  TGI: 13.3 µM
RXF 393 renal
  GI50: 1.7 µM
  TGI: 3.45 µM
KM12 colon
  GI50: 1.66 µM
  TGI: 3.23 µM
SNB-75 CNS
  GI50: 3.48 µM
  TGI: 14.9 µM
MOLT-4 leukemia
  GI50: 3.59 µM
  TGI: 66.3 µM
HOP-92 NSCLC
  GI50: 7.94 µM
  TGI: 22.9 µM
UACC-257 melanoma
  GI50: 3.4 µM
  TGI: 13.3 µM
NCI-H226 lung
  GI50: 3.23 µM
  TGI: 16.1 µM
OVCAR-3 ovarian
  GI50: 3.11 µM
  TGI: 9.27 µM
SNB-19 CNS
  GI50: 6.09 µM
  TGI: 21.2 µM
UO-31 renal
  GI50: 1.91 µM
  TGI: 4.73 µM
COLO 205 colon
  GI50: 2.21 µM
  TGI: 4.83 µM
MALME-3M melanoma
  GI50: 6.3 µM
  TGI: 20.9 µM
SK-MEL-5 melanoma
  GI50: 1.94 µM
  TGI: 4.47 µM
UACC-62 melanoma
  GI50: 1.73 µM
  TGI: 4.41 µM
HOP-62 NSCLC
  GI50: 10.3 µM
  TGI: 22 µM
TK-10 renal
  GI50: 5.12 µM
  TGI: 17.3 µM
SW-620 colon
  GI50: 1.79 µM
  TGI: 4.02 µM
SK-MEL-2 melanoma
  GI50: 16 µM
  TGI: 40.9 µM
A549 NSCLC
  GI50: 3.55 µM
  TGI: 15.2 µM
NCI-H23 lung
  GI50: 2.85 µM
  TGI: 8.69 µM
OVCAR-4 ovarian
  GI50: 11.4 µM
  TGI: 24 µM
SK-MEL-28 melanoma
  GI50: 2.26 µM
  TGI: 5.21 µM
SF-268 CNS
  GI50: 3.39 µM
  TGI: 12.1 µM
SK-OV-3 ovarian
  GI50: 3.65 µM
  TGI: 14.5 µM
RPMI-8226 leukemia
  GI50: 2.51 µM
  TGI: 8.21 µM
MDA-MB-231 breast
  GI50: 3.08 µM
  TGI: 10.8 µM
U251 CNS
  GI50: 2.82 µM
  TGI: 10.4 µM
OVCAR-5 ovarian
  GI50: 4.4 µM
  TGI: 20.3 µM
MCF7 breast
  GI50: 0.415 µM
  TGI: 3.89 µM
HT29 colon
  GI50: 1.82 µM
  TGI: 3.95 µM
MDA-MB-435
  GI50: 1.9 µM
  TGI: 4.24 µM
CAKI-1 renal
  GI50: 6.22 µM
  TGI: 19.2 µM
786-0 renal
  GI50: 2.16 µM
  TGI: 5.57 µM
PC-3 prostate
  GI50: 3.31 µM
  TGI: 14.3 µM
DU-145 prostate
  GI50: 4.63 µM
  TGI: 14.9 µM
BT-549 breast
  GI50: 1.55 µM
  TGI: 3.35 µM
HCT-15 colon
  GI50: 2.67 µM
  TGI: 10.7 µM
M14 melanoma
  GI50: 2.23 µM
  TGI: 5.9 µM
K-562 leukemia
  GI50: 3.1 µM
  TGI: > 100 µM
SF-539 CNS
  GI50: 2.03 µM
  TGI: 5.35 µM
NCI-H460 lung
  GI50: 8.19 µM
  TGI: 23.6 µM
NCI/ADR-RES ovarian
  GI50: 17 µM
  TGI: 62.9 µM
HCT-116 colon
  GI50: 0.343 µM
  TGI: 1.21 µM
NCI-H522 lung
  GI50: 4.07 µM
  TGI: 15.7 µM
HCC-2998 colon
  GI50: 1.95 µM
  TGI: 3.61 µM
ACHN renal
  GI50: 3.66 µM
  TGI: 13.8 µM
CCRF-CEM leukemia
  GI50: 2.86 µM
  TGI: 9.58 µM
OVCAR-8 ovarian
  GI50: 9.39 µM
  TGI: 22 µM
HS 578T breast
  GI50: 1.54 µM
  TGI: 5.57 µM
A498 renal
  GI50: 2.34 µM
  TGI: 10.3 µM
T-47D breast
  GI50: 2.7 µM
  TGI: 12.3 µM
SF-295 CNS
  GI50: 2.02 µM
  TGI: 5.66 µM
LOX IMVI melanoma
  GI50: 1.59 µM
  TGI: 3.07 µM
SN12C renal
  GI50: 3.22 µM
  TGI: 13.9 µM

Source: PubChem BioAssay (NCI)
